Source: ChEMBL document CHEMBL4699536, “Discovery of Natural Compounds for Cardiac Fibrosis by a Transcriptome-Based Functional Gene Module Reference Approach” (J Nat Prod, 2020)
The source made the active and inactive calls.

Experiments:
Format in all cases: functional, organism-based
Settings in all cases: time 30.0 day
Rattus norvegicus [1] = test: Cardioprotective activity in Sprague-Dawley rat model of LAD coronary artery ligation-induced cardiac fibrosis assessed as decrease in collagen in heart at 2.86 mg/kg, po administered via gavage for 30 days by Masson trichrome staining based microscopic method
Rattus norvegicus [2] = test: Cardioprotective activity in Sprague-Dawley rat model of LAD coronary artery ligation-induced cardiac fibrosis assessed as reduction in infarct survival area of myocardial cells at 2.86 mg/kg, po administered via gavage for 30 days by H and E staining based optical microscopic method
Rattus norvegicus [3] = test: Cardioprotective activity in Sprague-Dawley rat model of LAD coronary artery ligation-induced cardiac fibrosis assessed as decrease in myocardial necrotic area at 2.86 mg/kg, po administered via gavage for 30 days
Rattus norvegicus [4] = test: Cardioprotective activity in Sprague-Dawley rat model of LAD coronary artery ligation-induced cardiac fibrosis assessed as decrease in heart weight ratio at 2.86 mg/kg, po administered via gavage for 30 days
Rattus norvegicus [5] = test: Cardioprotective activity in Sprague-Dawley rat model of LAD coronary artery ligation-induced cardiac fibrosis assessed as increase in organized myocardial cells at 2.86 mg/kg, po administered via gavage for 30 days by H and E staining based optical microscopic method
Rattus norvegicus [6] = test: Cardioprotective activity in Sprague-Dawley rat model of LAD coronary artery ligation-induced cardiac fibrosis assessed as decrease in collagen volume fraction at 2.86 mg/kg, po administered via gavage for 30 days by Masson trichrome staining based microscopic method
Rattus norvegicus [7] = test: Cardioprotective activity in Sprague-Dawley rat model of LAD coronary artery ligation-induced cardiac fibrosis assessed as increase in ejection fraction at 2.86 mg/kg, po administered via gavage for 30 days by echocardiography
Rattus norvegicus [8] = test: Cardioprotective activity in Sprague-Dawley rat model of LAD coronary artery ligation-induced cardiac fibrosis assessed as increase in left ventricular function by measuring reduction in LAD-induced anterior wall weakened at 2.86 mg/kg, po administered via gavage for 30 days by echocardiography
Rattus norvegicus [9] = test: Cardioprotective activity in Sprague-Dawley rat model of LAD coronary artery ligation-induced cardiac fibrosis assessed as increase in fractional shortening at 2.86 mg/kg, po administered via gavage for 30 days by echocardiography
Rattus norvegicus [10] = test: Cardioprotective activity in Sprague-Dawley rat model of LAD coronary artery ligation-induced cardiac fibrosis assessed as decrease in Col3a1 mRNA expression at 10 mg/kg, po administered via gavage for 30 days by RT2 Profiler PCR Array
Rattus norvegicus [11] = test: Cardioprotective activity in Sprague-Dawley rat model of LAD coronary artery ligation-induced cardiac fibrosis assessed as increase in organized myocardial cells at 10 mg/kg, po administered via gavage for 30 days by H and E staining based optical microscopic method
Rattus norvegicus [12] = test: Cardioprotective activity in Sprague-Dawley rat model of LAD coronary artery ligation-induced cardiac fibrosis assessed as decrease in myocardial necrotic area at 10 mg/kg, po administered via gavage for 30 days
Rattus norvegicus [13] = test: Cardioprotective activity in Sprague-Dawley rat model of LAD coronary artery ligation-induced cardiac fibrosis assessed as increase in left ventricular function by measuring reduction in LAD-induced anterior wall weakened at 10 mg/kg, po administered via gavage for 30 days by echocardiography
Rattus norvegicus [14] = test: Cardioprotective activity in Sprague-Dawley rat model of LAD coronary artery ligation-induced cardiac fibrosis assessed as decrease in collagen in heart at 10 mg/kg, po administered via gavage for 30 days by Masson trichrome staining based microscopic method
Rattus norvegicus [15] = test: Cardioprotective activity in Sprague-Dawley rat model of LAD coronary artery ligation-induced cardiac fibrosis assessed as increase in fractional shortening at 10 mg/kg, po administered via gavage for 30 days by echocardiography
Rattus norvegicus [16] = test: Cardioprotective activity in Sprague-Dawley rat model of LAD coronary artery ligation-induced cardiac fibrosis assessed as increase in ejection fraction at 10 mg/kg, po administered via gavage for 30 days by echocardiography
Rattus norvegicus [17] = test: Cardioprotective activity in Sprague-Dawley rat model of LAD coronary artery ligation-induced cardiac fibrosis assessed as reduction in infarct survival area of myocardial cells at 10 mg/kg, po administered via gavage for 30 days by H and E staining based optical microscopic method
Rattus norvegicus [18] = test: Cardioprotective activity in Sprague-Dawley rat model of LAD coronary artery ligation-induced cardiac fibrosis assessed as decrease in collagen volume fraction at 10 mg/kg, po administered via gavage for 30 days by Masson trichrome staining based microscopic method
Rattus norvegicus [19] = test: Cardioprotective activity in Sprague-Dawley rat model of LAD coronary artery ligation-induced cardiac fibrosis assessed as decrease in Lox mRNA expression at 10 mg/kg, po administered via gavage for 30 days by RT2 Profiler PCR Array
Rattus norvegicus [20] = test: Cardioprotective activity in Sprague-Dawley rat model of LAD coronary artery ligation-induced cardiac fibrosis assessed as decrease in CTGF mRNA expression at 10 mg/kg, po administered via gavage for 30 days by RT2 Profiler PCR Array
Rattus norvegicus [21] = test: Cardioprotective activity in Sprague-Dawley rat model of LAD coronary artery ligation-induced cardiac fibrosis assessed as decrease in heart weight ratio at 10 mg/kg, po administered via gavage for 30 days

Measured: Activity

CCOC(=O)[C@H](CCc1ccccc1)N[C@@H](C)C(=O)N1CCC[C@H]1C(=O)O
active: Rattus norvegicus [1] | Rattus norvegicus [2] | Rattus norvegicus [3] | Rattus norvegicus [4] | Rattus norvegicus [5] | Rattus norvegicus [6] | Rattus norvegicus [7] | Rattus norvegicus [8] | Rattus norvegicus [9]

COc1cc2c(c(OC)c1OC)-c1c(cc3c(c1OC)OCO3)C[C@H](C)[C@](C)(O)[C@H]2OC(=O)c1ccccc1
not listed: Rattus norvegicus [1] | Rattus norvegicus [2] | Rattus norvegicus [3] | Rattus norvegicus [4] | Rattus norvegicus [5] | Rattus norvegicus [6] | Rattus norvegicus [7] | Rattus norvegicus [8] | Rattus norvegicus [9]
active: all other assays above
